We go through six compounds from patent US11242334B2, “Heterocyclic compounds as kinase inhibitors, compositions comprising the heterocyclic compound, and methods of use thereof” (JS INNOPHARM (SHANGHAI) LTD, priority 2017, dated 2022).

In test [1] the target is T1, human ERK2 (Homo sapiens, UniProt P28482).
T1 construct: recombinantly expressed as GST-tagged full-length protein purified from E. coli; GST; purchased Invitrogen PV3311; host or cells: E. coli
Description: LanthaScreen TR-FRET enzymatic assay, ERK2. The settings on record: IC50 values of ERK2 biochemical activity; 5 μM ATP, 400 nM ATF2-GFP substrate. The method, boiled down:
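IC50 values were fitted from percent of DMSO control using a 520/495 nm TR-FRET ratio with terbium anti-pATF2 (pThr71), read after an EDTA stop. The kinase reaction lasted one hour at room temperature, following 15-min compound pre-treatment. It contained 5 μM ATP, 400 nM ATF2-GFP substrate and 20 ng/ml in vitro-activated GST-ERK2.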

The test system of test [2] is Colo205 cell line. As to the kind of experiment: Colo205 cell proliferation assay (MTT assay, WST-8 readout). The following applies: Homo sapiens; IC50 values of growth inhibition in Colo 205 cells; 72 hours. It is filed as cell-based. The method, boiled down: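 Growth-inhibition IC50 was derived from WST-8 absorbance at 450 nm (2 h development) after 72 h compound exposure at 37° C. Exposure used final 50 μM–0.005 μM compound in 0.5% DMSO. Colo205 cells had been plated at 5,000/well in RPMI-1640 plus 10% FBS and allowed 24 h to attach.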
Background: Tetrazolium assays rely on reduction of a dye to a coloured formazan, in cell work by metabolically active cells.

T1 sequence (P28482 whole entry): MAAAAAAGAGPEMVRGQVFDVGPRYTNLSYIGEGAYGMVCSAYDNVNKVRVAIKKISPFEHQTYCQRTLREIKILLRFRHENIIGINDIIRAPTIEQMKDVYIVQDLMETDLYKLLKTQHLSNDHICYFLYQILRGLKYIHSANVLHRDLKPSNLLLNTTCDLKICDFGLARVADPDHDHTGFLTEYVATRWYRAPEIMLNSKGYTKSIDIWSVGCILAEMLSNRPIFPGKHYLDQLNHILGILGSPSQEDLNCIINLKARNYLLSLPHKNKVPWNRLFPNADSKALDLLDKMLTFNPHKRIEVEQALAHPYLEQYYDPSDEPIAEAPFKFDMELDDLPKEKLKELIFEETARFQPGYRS

As usually defined, the IC50 is the point on the concentration scale where inhibition reaches its midpoint. With `Cc1cc(-c2n[nH]c3ccc(-c4ccn([C@H](CO)c5ccc(Cl)c(F)c5)c(=O)c4)cc23)ccn1` [Example 15, (S)-1-(1-(4-chloro-3-fluorophenyl)-2-hydroxyethyl)-4-(3-(2-methylpyridin-4-yl)-1H-indazol-5-yl)pyridin-2(1H)-one], the IC50 in test [1] was under 10 nM; in test [2], at most 500 nM.

Take `Cn1cc(-c2n[nH]c3ccc(-c4ccn([C@H](CO)c5cc(F)cc(C(F)(F)F)c5)c(=O)c4)cc23)cn1` [Example 41, (S)-1-(1-(3-fluoro-5-(trifluoromethyl)phenyl)-2-hydroxyethyl)-4-(3-(1-methyl-1H-pyrazol-4-yl)-1H-indazol-5-yl)pyridin-2(1H)-one]: the figures for the IC50 in test [1] and in test [2] were under 10 nM and at most 500 nM, respectively.

As to `Cn1ccc(-c2n[nH]c3ccc(-c4ccn([C@H](CO)c5cc(F)cc(Br)c5)c(=O)c4)cc23)cc1=O` [Example 121, (S)-1-(1-(3-bromo-5-fluorophenyl)-2-hydroxyethyl)-4-(3-(1-methyl-2-oxo-1,2-dihydropyridin-4-yl)-1H-indazol-5-yl)pyridin-2(1H)-one], the IC50 in test [1] was under 10 nM; in test [2], 1000 to 5000 nM.

Consider `CC(=O)Nc1c(F)cccc1Cn1ccc(-c2ccc3[nH]nc(-c4ccnc(C)c4)c3c2)cc1=O` [Example 88, N-(2-fluoro-6-((4-(3-(2-methylpyridin-4-yl)-1H-indazol-5-yl)-2-oxopyridin-1(2H)-yl)methyl)phenyl)acetamide], for which the IC50 in test [1] is under 10 nM; in test [2], 1000 to 5000 nM.

Turning to `Cc1cc(-c2n[nH]c3ccc(-c4ccn(Cc5ccccc5C(F)(F)F)c(=O)c4)cc23)ccn1` [Example 59, 4-(3-(2-methylpyridin-4-yl)-1H-indazol-5-yl)-1-(2-(trifluoromethyl)benzyl)pyridin-2(1H)-one], the IC50 in test [1] was under 10 nM; in test [2], 1000 to 5000 nM.

In the case of `O=c1cc(-c2ccc3[nH]nc(-c4cnn(C5CC5)c4)c3c2)ccn1[C@H](CO)c1ccc(F)c(Cl)c1` [Example 50, (S)-1-(1-(3-chloro-4-fluorophenyl)-2-hydroxyethyl)-4-(3-(1-cyclopropyl-1H-pyrazol-4-yl)-1H-indazol-5-yl)pyridin-2(1H)-one], the IC50 in test [1] was under 10 nM; in test [2], 500 to 1000 nM.
